Reference: patent US20130296267A1, “AGENT FOR INTRA-ARTICULAR INJECTION” (priority 2008, published 2013)

Test: microscopy of dexamethasone crystals in pure saline and in the innovation
Assay type: physicochemical
Conditions: in phospholipid solution

crystals after twelve hours (after twelve hours): no longer detectable
reduction of crystals (within six hours): 50%
SMILES: CC(=O)OCC(=O)[C@@]1(O)[C@H](C)C[C@H]2[C@@H]3CCC4=CC(=O)C=C[C@]4(C)[C@@]3(F)[C@@H](O)C[C@@]21C [dexamethasone crystals, dexamethasone acetate]
